In patent publication US20250313619A1, “RISANKIZUMAB COMPOSITIONS” (ABBVIE INC., priority 0001, published 2025):

Legend:
PLA2G15 = target: T1, PLA2G15 (Cricetulus griseus, UniProt G3HKV9); experiment: PLA2G15 inhibition study: fosinopril spiked in DP2 material, PS20 HPLC-CAD subspecies method; format: biochemical; conditions: room temperature in dark for two weeks
T1 construct: PLA2 in the liquid compositions described herein is derived from a CHO cell line; endogenous in cells; host or cells: CHO cells expressing risankizumab (host-cell protein carried into drug substance/drug product)
T1 sequence (G3HKV9 34-412): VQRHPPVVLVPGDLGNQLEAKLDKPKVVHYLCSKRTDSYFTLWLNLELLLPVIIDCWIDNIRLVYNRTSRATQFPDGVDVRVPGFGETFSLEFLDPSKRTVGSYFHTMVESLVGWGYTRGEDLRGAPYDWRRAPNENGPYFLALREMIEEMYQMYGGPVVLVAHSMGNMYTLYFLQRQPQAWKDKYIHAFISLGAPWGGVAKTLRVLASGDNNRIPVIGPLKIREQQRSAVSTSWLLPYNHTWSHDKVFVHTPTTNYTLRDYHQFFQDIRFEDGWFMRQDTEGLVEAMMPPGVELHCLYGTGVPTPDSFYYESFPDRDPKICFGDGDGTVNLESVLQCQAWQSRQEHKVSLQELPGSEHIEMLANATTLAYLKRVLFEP
Method: Fosinopril is an angiotensin converting enzyme (ACE) inhibitor, which is been used to treat hypertension and some types of chronic heart failure (Murdoch et al. (1992) Drugs 43:123-140). […] All samples (including non-spiked samples) were incubated at room temperature in the dark for two weeks. PS20 degradation levels in those samples were tested with a PS20 subspecies method. PS20 degradation levels in those samples were compared with negative controls (non-spiked samples kept at room temperature in dark for two weeks) and positive controls (non-spiked samples kept at −80° C. before testing). […] The chemical structure of fosinopril is shown below.
Fosinopril sodium was dissolved in Mill-Q water at a concentration of 0.5 mg/mL. The solution was aseptically filtered with a 0.22 syringe filter before use. During the filtration, the syringe filter was flushed with Mill-Q water and then with the 0.5 mg/mL fosinopril water solution. Lower concentrations of fosinopril water solutions were aseptically diluted with Mill-Q water. More detailed sample preparation can be found in Table 22. All vials were glass vials, and solutions were well mixed before incubation. Samples were incubated at room temperature in dark for two weeks before testing.
A PS20 HPLC-CAD subspecies method was used to test the PS20 levels qualitatively as well as profiles in all samples. Solutions were transferred to HPLC vials and diluted with Milli-Q water (1:1 dilution). All HPLC vials were mixed well before placed in an HPLC autosampler for testing. Sample descriptions and labels can be found in Table 23.

[1] = target: T2, PLA2G15 (Phospholipase A2 Group XV) (Homo sapiens, UniProt Q8NCC3); conditions: Hinkovska-Galcheva et al. (2021); read-out: IC50, inhibition of PLA2G15 activity; cited from earlier work
T2 sequence (Q8NCC3 34-412): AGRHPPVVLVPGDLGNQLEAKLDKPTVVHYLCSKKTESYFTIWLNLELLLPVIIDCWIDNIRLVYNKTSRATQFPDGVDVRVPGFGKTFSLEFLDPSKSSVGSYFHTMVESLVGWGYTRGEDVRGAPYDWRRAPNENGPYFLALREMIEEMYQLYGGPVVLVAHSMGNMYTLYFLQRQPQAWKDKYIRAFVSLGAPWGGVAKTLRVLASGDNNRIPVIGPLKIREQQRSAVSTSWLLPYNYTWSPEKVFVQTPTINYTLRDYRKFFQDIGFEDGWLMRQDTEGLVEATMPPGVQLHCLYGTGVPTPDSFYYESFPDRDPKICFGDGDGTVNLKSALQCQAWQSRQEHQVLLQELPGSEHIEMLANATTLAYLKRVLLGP

protection (inhibition) of PS20 degradation in the DP2 material (PLA2G15; 0.9 μg/mL spiking level, vs non-spiked control, listed as Fosinopril): showed protection (inhibition)
protection (inhibition) of PS20 degradation in the DP2 material (PLA2G15; 0.9-83.3 ug/mL spiked, listed as Fosinopril): dose dependent protection (inhibition)
Structure (SMILES): CCC(=O)O[C@@H](O[P@](=O)(CCCCc1ccccc1)CC(=O)N1C[C@H](C2CCCCC2)C[C@H]1C(=O)O)C(C)C [fosinopril]
protection (inhibition) of PS20 degradation in the DP2 material (PLA2G15; 0.9 μg/mL spiking level, vs non-spiked control): reduction of PS20 degradation has been observed
protection (inhibition) of PS20 degradation in the DP2 material (PLA2G15; 0.9-83.3 ug/mL spiked): Dose (concentration) dependent protection (inhibition)
IC50 [1]: ~180 nM
